The text below walks through data of ChEMBL document CHEMBL1201862, “PubChem BioAssay data set” (2004).

Test systems include SW-620; NCI-H23; OVCAR-4; MDA-MB-435; OVCAR-3; UACC-62; PC-3; HOP-92; TK-10; COLO 205; EKVX; UO-31; 786-0; ACHN; NCI-H522; RPMI-8226; SK-MEL-5; NCI/ADR-RES; A549; NCI-H226.
What all share (assay): inhibition of tumour cell growth, NCI panel, 48 h

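Where inhibition never reached the appropriate level, the endpoint shown equals the highest concentration tested. Otherwise, values were interpolated linearly from a five-concentration, 48-hour dose response in 96-well plates. GI50 = concentration required for 50% inhibition of growth.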 Active and inactive are the calls of the source. Rule as the data show it: active = GI50 up to about 1.1 µM and inactive = higher. Where a SMILES comes first, the peptide text is derived from it. [ ]: non-standard residue; d: D form. The star is where a group is joined. NMeAc5c = CNC1(C(=O)O)CCCC1; Boc = CC(C)(C)OC(=O)*; OBn = c1ccc(CO*)cc1 Some results are limits rather than exact numbers.

Regarding `COC(=O)C1CC(C=[N+](C)C)=C(SC)N1` (stereo unspecified), the GI50 with SW-620, in the assay with NCI-H23, with OVCAR-4, in the assay with MDA-MB-435, with OVCAR-3 and in the assay with UACC-62 was > 100 µM (inactive) throughout. Moreover, the GI50 in the assay on PC-3, in the assay on HOP-92, in the assay with TK-10, in the assay with COLO 205, with EKVX and with UO-31 was > 100 µM (inactive) each time. For the same molecule, the GI50 in the assay with 786-0, in the assay on ACHN, in the assay with NCI-H522, in the assay with RPMI-8226, with SK-MEL-5 and in the assay with NCI/ADR-RES was > 100 µM (inactive) in each case.

Take `Cc1cc(-n2nnc(C(=O)O)c2-c2ccccc2)c2ccc(Cl)cc2n1`: the GI50 in the assay with SW-620, with NCI-H23, in the assay on OVCAR-4, in the assay on MDA-MB-435, in the assay on A549 and in the assay with OVCAR-3 was > 100 µM (inactive) in each case. Also, the GI50 in the assay with UACC-62, in the assay with PC-3, in the assay with HOP-92, in the assay on TK-10, in the assay with COLO 205 and with EKVX was > 100 µM (inactive) throughout. Moreover, the GI50 in the assay on UO-31, in the assay on 786-0, in the assay with ACHN, in the assay with NCI-H522, in the assay with SK-MEL-5 and in the assay on NCI-H226 was > 100 µM (inactive) in each case. Further, the GI50 with NCI/ADR-RES was > 100 µM (inactive).

`CCOC(=O)Cc1nc2cc(F)c(F)cc2[nH]c1=O`: the GI50 in the assay with SW-620, with NCI-H23, in the assay with OVCAR-4, in the assay with MDA-MB-435, in the assay with A549 and in the assay with OVCAR-3 was > 100 µM (inactive) each time. Also, the GI50 with UACC-62, with PC-3, in the assay with HOP-92, with TK-10, in the assay on COLO 205 and in the assay on EKVX was > 100 µM (inactive) in each case. For the same molecule, the GI50 with UO-31, in the assay with 786-0, in the assay with ACHN, in the assay with RPMI-8226, in the assay with SK-MEL-5 and in the assay on NCI-H226 was > 100 µM (inactive) each time. Besides, in the assay on NCI/ADR-RES, the GI50 is > 100 µM (inactive).

On to `COc1ccc(C(=O)NCCC2CN(S(=O)(=O)C(F)(F)F)c3ccccc32)c(OC)c1` (stereo unspecified), for which the GI50 was 35.8 µM (inactive) in the assay on SW-620; 32.8 µM (inactive) in the assay with NCI-H23; 69.3 µM (inactive) with OVCAR-4; 30.1 µM (inactive) with MDA-MB-435; 52.1 µM (inactive) with A549; 51.4 µM (inactive) in the assay on OVCAR-3. Further, the GI50 with UACC-62 was 26.9 µM (inactive); with PC-3, 36 µM (inactive); in the assay on HOP-92, 61.4 µM (inactive); in the assay with COLO 205 it was 34.5 µM (inactive); with EKVX, 39 µM (inactive); with UO-31 it was 43 µM (inactive). For the same molecule, the GI50 in the assay with 786-0 was 53 µM (inactive); with ACHN it was 33.2 µM (inactive); in the assay with NCI-H522, 19.3 µM (inactive); in the assay on RPMI-8226 it was 26.8 µM (inactive); with SK-MEL-5 it was 15.2 µM (inactive); in the assay with NCI/ADR-RES, 23.1 µM (inactive).

For `COC(=O)C(/C(=N\O)C(=O)Nc1cccc(Cl)c1C)c1cnc2ccccc2n1` (stereo unspecified), the GI50 in the assay with SW-620, with NCI-H23, in the assay with OVCAR-4, in the assay on MDA-MB-435, in the assay with A549 and with OVCAR-3 was > 100 µM (inactive) in each case. Moreover, the GI50 in the assay with UACC-62, with PC-3, with HOP-92, with TK-10, in the assay on COLO 205 and in the assay with EKVX was > 100 µM (inactive) each time. Besides, the GI50 in the assay on UO-31, in the assay on 786-0, in the assay with ACHN, in the assay with NCI-H522, in the assay with SK-MEL-5 and with NCI-H226 was > 100 µM (inactive) throughout. The GI50 with NCI/ADR-RES was > 100 µM (inactive).

For the molecule `Cc1ccsc1/C=N/NC1=NCCN1`, the GI50 with SW-620, with NCI-H23, with OVCAR-4, in the assay with MDA-MB-435, in the assay with A549 and in the assay on OVCAR-3 was > 100 µM (inactive) each time. Also, the GI50 in the assay on UACC-62, in the assay with PC-3, in the assay with HOP-92, with TK-10, in the assay on COLO 205 and in the assay with EKVX was > 100 µM (inactive) in each case. Moreover, the GI50 in the assay on UO-31, in the assay on 786-0, in the assay with ACHN, with RPMI-8226, in the assay on SK-MEL-5 and with NCI-H226 was > 100 µM (inactive) in each case. Further, in the assay with NCI/ADR-RES, the GI50 was > 100 µM (inactive).

`COC(CNC(=O)C(C)NC(=O)C(C)NC(=O)c1ccccc1)OC` (stereo unspecified): the GI50 in the assay with SW-620, with NCI-H23, with OVCAR-4, with MDA-MB-435, with A549 and with UACC-62 was > 100 µM (inactive) each time. The GI50 with PC-3, in the assay on HOP-92, with TK-10, with COLO 205, with EKVX and with 786-0 was > 100 µM (inactive) in each case. In addition, the GI50 in the assay with ACHN, in the assay with NCI-H522, with RPMI-8226, with SK-MEL-5, in the assay with NCI-H226 and in the assay on NCI/ADR-RES was > 100 µM (inactive) each time.

As for `CC12CC(OC(=O)[C@]1(C)O)[C@@H]([C@]1(O)CC[C@H]3[C@@H]4C[C@H]5O[C@]56[C@@H](O)C=CC(=O)[C@]6(C)[C@H]4CC[C@@]31C)C2` (stereo partly specified), the GI50 was 3.18 µM (inactive) in the assay with SW-620; 4.08 µM (inactive) in the assay on NCI-H23; 11.2 µM (inactive) in the assay on OVCAR-4; 7.4 µM (inactive) in the assay with MDA-MB-435; 30.5 µM (inactive) in the assay on A549; 2.59 µM (inactive) in the assay on OVCAR-3. The GI50 with UACC-62 is 14.6 µM (inactive); in the assay with PC-3, 12.1 µM (inactive); in the assay on HOP-92, 2.92 µM (inactive); with TK-10, 7.36 µM (inactive); with COLO 205 it was 3.39 µM (inactive); with EKVX it was 2.84 µM (inactive). Moreover, the GI50 with UO-31 is 4.32 µM (inactive); with 786-0, 3.04 µM (inactive); in the assay with ACHN it was 10.9 µM (inactive); in the assay on NCI-H522, 1.16 µM (inactive); in the assay with SK-MEL-5 it was 0.785 µM (active); in the assay with NCI-H226 it was 40.7 µM (inactive). In the assay on NCI/ADR-RES, the GI50 was 5.35 µM (inactive).

Take `CC1(C)CCCC(C)(C2CCC3(C)C2C(O)CC2C4(C)CCC(O)C(C)(C)C4CCC23C)O1` (stereo unspecified): the GI50 in the assay with SW-620 was > 100 µM (inactive); in the assay on NCI-H23, > 100 µM (inactive); with OVCAR-4 it was 66.2 µM (inactive); in the assay with MDA-MB-435, > 100 µM (inactive); in the assay on A549, > 100 µM (inactive); in the assay on UACC-62, > 100 µM (inactive). Also, the GI50 with PC-3 is > 100 µM (inactive); with HOP-92, 76.6 µM (inactive); with TK-10, 86.5 µM (inactive); with COLO 205, 80.2 µM (inactive); in the assay with EKVX, > 100 µM (inactive); in the assay on UO-31, > 100 µM (inactive). For the same molecule, the GI50 in the assay with 786-0 was 75.7 µM (inactive); in the assay with ACHN, 56.9 µM (inactive); in the assay with NCI-H522, 75.5 µM (inactive); with SK-MEL-5, 47.8 µM (inactive); with NCI-H226, > 100 µM (inactive); in the assay with NCI/ADR-RES, 55 µM (inactive).

Turning to `CN(C(=O)C(Cc1ccccc1)NC(=O)OC(C)(C)C)C1(C(=O)NC(Cc2ccccc2)C(=O)OCc2ccccc2)CCCC1` (stereo not drawn) (Boc-Phe-[NMeAc5c]-Phe-OBn; configuration not given here), the GI50 in the assay with SW-620 was 39.7 µM (inactive); with NCI-H23 it was 43.7 µM (inactive); with OVCAR-4, > 100 µM (inactive); with MDA-MB-435, 37.3 µM (inactive); with A549, 33.3 µM (inactive); with OVCAR-3 it was 31.8 µM (inactive). The GI50 in the assay on UACC-62 was 24.5 µM (inactive); in the assay on PC-3, 28.4 µM (inactive); in the assay on HOP-92, 53.7 µM (inactive); with TK-10, 34.8 µM (inactive); in the assay on COLO 205, 22.3 µM (inactive); with EKVX, 59.6 µM (inactive). In addition, the GI50 in the assay with UO-31 is 25.9 µM (inactive); in the assay with 786-0, 40.9 µM (inactive); with ACHN it was 24.9 µM (inactive); in the assay with RPMI-8226, 22.5 µM (inactive); with SK-MEL-5, 59.6 µM (inactive); in the assay on NCI-H226, 40.6 µM (inactive). Besides, the GI50 with NCI/ADR-RES is 27.7 µM (inactive).
